This note sets out measurements from ChEMBL document CHEMBL1132014, “Novel 1,2,3,4-tetrahydroisoquinolines with high affinity and selectivity for the dopamine D3 receptor” (Bioorg Med Chem Lett, 1999).

The structures appear in SMILES notation.

Series [1] has as its target T1, D(2) dopamine receptor (Homo sapiens, UniProt P14416). The experiment in a line: Displacement [125I]iodosulpiride from human Dopamine receptor D2 expressed in CHO cells. Format: cell-based.
In series [2] the target is T2, D(3) dopamine receptor (Homo sapiens, UniProt P35462). Put plainly: Displacement of [125I]iodosulpiride from human Dopamine receptor D3 expressed in CHO cells. Format: cell-based. Background: Displacement assays read how much labelled ligand stays bound in the presence of the test substance.
T2 sequence (P35462 whole entry): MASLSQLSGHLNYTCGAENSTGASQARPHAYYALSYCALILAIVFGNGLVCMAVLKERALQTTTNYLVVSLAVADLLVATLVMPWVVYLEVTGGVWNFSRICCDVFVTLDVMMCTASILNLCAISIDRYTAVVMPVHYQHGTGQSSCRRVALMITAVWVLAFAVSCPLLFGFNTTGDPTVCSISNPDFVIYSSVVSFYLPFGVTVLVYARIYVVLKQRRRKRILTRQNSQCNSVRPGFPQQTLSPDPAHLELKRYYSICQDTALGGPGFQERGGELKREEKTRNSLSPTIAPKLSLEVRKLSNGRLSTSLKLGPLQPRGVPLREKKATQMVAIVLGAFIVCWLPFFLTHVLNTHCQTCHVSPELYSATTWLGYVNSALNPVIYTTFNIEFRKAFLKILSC
Series [3] concerns the target T2, D(3) dopamine receptor. Put plainly: In vitro functional antagonist effect by its affinity to bind to Dopamine receptor D3.
Series [4] in a line: Pharmacokinetic property (blood clearance) in rat. The format is ADME, organism-based.
Series [5] addresses T1, D(2) dopamine receptor. The experiment in a line: In vitro functional antagonist effect by its affinity to bind to Dopamine receptor D2.
A short description of series [6]: Half life in rat. Conditions: in vivo. The format is ADME, organism-based.
Series [7] in a line: Pharmacokinetic property (CLb)of the compound was determined in rat. The format is ADME, organism-based. Conditions: blood, read-out: CLb.

T1 sequence (P14416 whole entry): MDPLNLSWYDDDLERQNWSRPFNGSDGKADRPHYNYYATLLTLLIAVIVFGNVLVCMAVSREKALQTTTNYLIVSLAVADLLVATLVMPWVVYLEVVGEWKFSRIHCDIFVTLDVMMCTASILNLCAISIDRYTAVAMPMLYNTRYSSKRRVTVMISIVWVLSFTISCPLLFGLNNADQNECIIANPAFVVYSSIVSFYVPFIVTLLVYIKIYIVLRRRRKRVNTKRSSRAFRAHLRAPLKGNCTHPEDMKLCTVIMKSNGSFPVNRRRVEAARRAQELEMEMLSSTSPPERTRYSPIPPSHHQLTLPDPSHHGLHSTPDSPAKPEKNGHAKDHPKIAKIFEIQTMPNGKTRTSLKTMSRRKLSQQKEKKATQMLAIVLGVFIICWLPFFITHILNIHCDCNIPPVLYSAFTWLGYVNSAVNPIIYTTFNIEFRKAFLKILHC

A word on the Ki: it is a dissociation constant, usually derived from enzyme kinetics or from competition with a known ligand. Low values mean higher affinity, high ones lower affinity. In the case of `CC(=O)c1ccc(/C=C/C(=O)NCCCCN2CCc3ccc(OS(=O)(=O)C(F)(F)F)cc3C2)cc1`, the Ki was 251 nM at D(2) dopamine receptor [1] and 3.98 nM on D(3) dopamine receptor [2].

For `O=C(/C=C/c1ccccc1)NCCCCN1CCc2ccc(OS(=O)(=O)C(F)(F)F)cc2C1`, the Ki on D(2) dopamine receptor [1] is 316 nM; on D(3) dopamine receptor [2], 5.01 nM.

Turning to `CC(=O)c1ccc(-c2ccc(C(=O)NCCCCN3CCc4ccc(OS(=O)(=O)C(F)(F)F)cc4C3)cc2)cc1`, the results for the Ki on D(2) dopamine receptor [1] and on D(3) dopamine receptor [2] were 200 nM and 2.51 nM, respectively.

With `O=C(/C=C/c1ccc2ccccc2c1)NCCCCN1CCc2ccc(OS(=O)(=O)C(F)(F)F)cc2C1`, the Ki on D(2) dopamine receptor [1] is 1000 nM; on D(3) dopamine receptor [2] it was 5.01 nM.

On to `CC(=O)c1cccc(/C=C/C(=O)NCCCCN2CCc3ccc(OS(=O)(=O)C(F)(F)F)cc3C2)c1`, for which the Ki at D(2) dopamine receptor [1] is 398 nM; on D(3) dopamine receptor [2], 3.98 nM.

With `O=C(NCCCCN1CCc2ccc(OS(=O)(=O)C(F)(F)F)cc2C1)c1ccc(-c2ccc(N3CCCC3=O)cc2)cc1`, the Ki at D(2) dopamine receptor [1] is 126 nM; on D(3) dopamine receptor [2], 2.51 nM.

Consider `CN(C)c1ccc(/C=C/C(=O)NCCCCN2CCc3ccc(OS(=O)(=O)C(F)(F)F)cc3C2)cc1`, for which the Ki on D(2) dopamine receptor [1] is 501 nM; on D(3) dopamine receptor [2], 3.98 nM.

Regarding `O=C(NCCCCN1CCc2ccc(OS(=O)(=O)C(F)(F)F)cc2C1)c1ccc(-c2ccccc2)cc1`, the inhibitory constant (Ki) on D(2) dopamine receptor [1] was 501 nM; at D(3) dopamine receptor [2] it was 7.94 nM.

Consider `O=C(/C=C/c1ccc2[nH]ccc2c1)NCCCCN1CCc2ccc(OS(=O)(=O)C(F)(F)F)cc2C1`, for which the Ki is 200 nM at D(2) dopamine receptor [1] and 2 nM at D(3) dopamine receptor [2].

With `COc1ccc(/C=C/C(=O)NCCCCN2CCc3ccc(OS(=O)(=O)C(F)(F)F)cc3C2)cc1`, the inhibition constant (Ki) on D(2) dopamine receptor [1] is 316 nM; on D(3) dopamine receptor [2] it was 3.98 nM.

In the case of `O=C(/C=C/c1ccc2ccccc2n1)NCCCCN1CCc2ccc(OS(=O)(=O)C(F)(F)F)cc2C1`, the Ki is 398 nM on D(2) dopamine receptor [1] and 3.98 nM at D(3) dopamine receptor [2].

As for `O=C(/C=C/c1cnc2ccccc2c1)NCCCCN1CCc2ccc(OS(=O)(=O)C(F)(F)F)cc2C1`, the Ki at D(2) dopamine receptor [1] is 316 nM; at D(3) dopamine receptor [2], 3.98 nM.

As to `Cn1c(=O)ccc2cc(/C=C/C(=O)NCCCCN3CCc4ccc(OS(=O)(=O)C(F)(F)F)cc4C3)ccc21`, the Ki is 316 nM at D(2) dopamine receptor [1] and 10 nM at D(3) dopamine receptor [2].

As to `Cc1ccccc1-c1ccc(C(=O)NCCCCN2CCc3ccc(OS(=O)(=O)C(F)(F)F)cc3C2)cc1`, the inhibition constant Ki at D(2) dopamine receptor [1] is 1580 nM; at D(3) dopamine receptor [2], 50.1 nM.

A word on the pKb: it is the negative decadic logarithm of the Kb, by convention in mol/L. As a reminder, the half-life is the time in which the quantity being followed falls by half. High values mean slow loss, low ones fast loss. Regarding `O=C(/C=C/c1c[nH]c2ccccc12)NCCCCN1CCc2ccc(OS(=O)(=O)C(F)(F)F)cc2C1`, the values for the pKb at D(3) dopamine receptor [3] and on D(2) dopamine receptor [5] were 8.9 and 6.6, respectively. This compound also came in with a clearance in series [4] of 27 mL/min/kg. Also, the figures for the Ki at D(2) dopamine receptor [1] and at D(3) dopamine receptor [2] were 631 nM and 3.98 nM, respectively. The half-life in series [6] is 2.5 h.

Take `CNC(=O)c1cccc(-c2ccc(C(=O)NCCCCN3CCc4ccc(OS(=O)(=O)C(F)(F)F)cc4C3)cc2)c1`: the figures for the Ki at D(2) dopamine receptor [1] and on D(3) dopamine receptor [2] were 126 nM and 2 nM, respectively.

With `O=C(/C=C/c1ccc2ncccc2c1)NCCCCN1CCc2ccc(OS(=O)(=O)C(F)(F)F)cc2C1`, the Ki was 251 nM on D(2) dopamine receptor [1] and 3.16 nM on D(3) dopamine receptor [2].

For `Cc1cc(C(=O)NCCCCN2CCc3ccc(OS(=O)(=O)C(F)(F)F)cc3C2)ccc1-c1ccccc1`, the Ki on D(2) dopamine receptor [1] was 1000 nM; at D(3) dopamine receptor [2], 50.1 nM.

For the compound `O=C(NCCCCN1CCc2ccccc2C1)c1ccc(-c2ccccc2)cc1`, the clearance in series [7] is 20 mL/min/kg. Moreover, the values for the Ki at D(2) dopamine receptor [1] and on D(3) dopamine receptor [2] were 501 nM and 25.1 nM, respectively.

In the case of `COc1cccc(/C=C/C(=O)NCCCCN2CCc3ccc(OS(=O)(=O)C(F)(F)F)cc3C2)c1`, the inhibitory constant (Ki) at D(2) dopamine receptor [1] was 316 nM; on D(3) dopamine receptor [2], 3.16 nM.

For the compound `CNC(=O)c1ccc(-c2ccc(C(=O)NCCCCN3CCc4ccc(OS(=O)(=O)C(F)(F)F)cc4C3)cc2)cc1`, the Ki is 100 nM on D(2) dopamine receptor [1] and 2.51 nM at D(3) dopamine receptor [2].

As for `O=C(/C=C\c1ccccc1)NCCCCN1CCc2ccc(OS(=O)(=O)C(F)(F)F)cc2C1`, the Ki on D(2) dopamine receptor [1] is 316 nM; at D(3) dopamine receptor [2], 39.8 nM.

Turning to `O=C(/C=C/c1ccc2nc(O)ccc2c1)NCCCCN1CCc2ccc(OS(=O)(=O)C(F)(F)F)cc2C1`, the Ki at D(2) dopamine receptor [1] was 158 nM; on D(3) dopamine receptor [2] it was 2.51 nM.

On to `Cc1nnc(-c2ccc(-c3ccc(C(=O)NCCCCN4CCc5ccc(OS(=O)(=O)C(F)(F)F)cc5C4)cc3)cc2)o1`, for which the Ki is 100 nM at D(2) dopamine receptor [1] and 2 nM on D(3) dopamine receptor [2].

Regarding `O=C(NCCCCN1CCc2ccc(OS(=O)(=O)C(F)(F)F)cc2C1)c1cccc(-c2ccccc2)c1`, the Ki is 501 nM on D(2) dopamine receptor [1] and 126 nM on D(3) dopamine receptor [2].

With `CCCN(CCCCNC(=O)c1ccc(-c2ccccc2)cc1)C1CCc2c(Cl)cccc2C1` (stereo unspecified), in series [7], the clearance was 80 mL/min/kg.
